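Following 48 hours of exposure in 96-well plates, responses at five concentrations were used to interpolate endpoints linearly. The concentration for 50% growth inhibition is given as GI50. At the TGI there is no net growth.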
How the values were obtained:
Assay in all cases: DTP human tumour cell line panel, 48 h
[1] = system: BT-549 breast
[2] = system: SK-MEL-5 melanoma
[3] = system: IGROV1 ovarian
[4] = system: M14 melanoma
[5] = system: UACC-62 melanoma
[6] = system: MALME-3M melanoma
[7] = system: HT29 colon
[8] = system: UO-31 renal
[9] = system: COLO 205 colon
[10] = system: HL-60(TB) leukemia
[11] = system: KM12 colon
[12] = system: HOP-92 NSCLC
[13] = system: DU-145 prostate
[14] = system: CAKI-1 renal
[15] = system: SK-OV-3 ovarian
[16] = system: MDA-MB-435
[17] = system: CCRF-CEM leukemia
[18] = system: SW-620 colon
[19] = system: ACHN renal
[20] = system: HCT-116 colon
[21] = system: NCI-H226 lung
[22] = system: PC-3 prostate
[23] = system: SF-295 CNS
[24] = system: TK-10 renal
[25] = system: SF-268 CNS
[26] = system: SNB-19 CNS
[27] = system: NCI-H460 lung
[28] = system: RXF 393 renal
[29] = system: OVCAR-8 ovarian
[30] = system: K-562 leukemia
[31] = system: MCF7 breast
[32] = system: SF-539 CNS
[33] = system: OVCAR-4 ovarian
[34] = system: SN12C renal
[35] = system: MDA-N
[36] = system: OVCAR-3 ovarian
[37] = system: HOP-62 NSCLC
[38] = system: SR leukemia
[39] = system: NCI/ADR-RES ovarian
[40] = system: LOX IMVI melanoma
[41] = system: HCC-2998 colon
[42] = system: SK-MEL-2 melanoma
[43] = system: EKVX NSCLC
[44] = system: SK-MEL-28 melanoma
[45] = system: A549 NSCLC
[46] = system: HCT-15 colon
[47] = system: MDA-MB-231 breast
[48] = system: 786-0 renal
[49] = system: UACC-257 melanoma
[50] = system: HS 578T breast
[51] = system: SNB-75 CNS
[52] = system: MOLT-4 leukemia
[53] = system: OVCAR-5 ovarian
[54] = system: RPMI-8226 leukemia
[55] = system: NCI-H23 lung
[56] = system: A498 renal
[57] = system: U251 CNS
[58] = system: T-47D breast
[59] = system: NCI-H522 lung

C#CCn1c(=O)ccn(/C(=C\C(=O)OCC)C(=O)OCC)c1=O showed a TGI [1] of 25.4 µM, a TGI [2] of 46.1 µM and a TGI [3] of 29.8 µM. The TGI [4] was 10.3 µM, the TGI [5] was 28.3 µM and the TGI [6] was 4.99 µM. For the same molecule, the TGI [7] was 4.4 µM, the TGI [8] was 26.4 µM and the GI50 [9] was 1.53 µM. The TGI [9] was 3.17 µM, the TGI [10] was > 100 µM and the TGI [11] was 48.8 µM. It also gave a TGI [12] of 4.5 µM, a TGI [13] of 31.1 µM and a TGI [14] of 2.4 µM. For the same molecule, the TGI [15] was > 59.9 µM, the TGI [16] was 22.9 µM and the TGI [17] was > 20.9 µM. For the same molecule, the TGI [18] was 5.37 µM, the TGI [19] was 3.08 µM and the TGI [20] was 16.5 µM. For the same molecule, the TGI [21] was 40.4 µM, the TGI [22] was 29.4 µM and the TGI [23] was 43.3 µM. The TGI [24] was 3.45 µM, the TGI [25] was 42.4 µM and the TGI [26] was 36.4 µM. For the same molecule, the TGI [27] was 7.76 µM, the TGI [28] was 4.84 µM and the TGI [29] was 5.42 µM. For the same molecule, the TGI [30] was > 100 µM, the TGI [31] was 9.78 µM and the TGI [32] was 4.64 µM. For the same molecule, the TGI [33] was 7.3 µM, the TGI [34] was > 58 µM and the TGI [35] was 35.1 µM. The TGI [36] was 16.3 µM, the TGI [37] was > 54.4 µM and the TGI [38] was > 43.5 µM. The TGI [39] was 33.3 µM, the TGI [40] was > 50.5 µM and the TGI [41] was 35.9 µM. For the same molecule, the TGI [42] was 32.5 µM, the TGI [43] was 27.9 µM and the TGI [44] was 25.7 µM. It also gave a TGI [45] of 43.8 µM, a TGI [46] of 6.63 µM and a TGI [47] of 41.9 µM. It also gave a TGI [48] of 6.05 µM, a TGI [49] of 29.5 µM and a TGI [50] of 63.5 µM. For the same molecule, the TGI [51] was 39.9 µM, the TGI [52] was > 27.7 µM and the TGI [53] was 30.9 µM. The TGI [54] was > 23.9 µM, the TGI [55] was 31.8 µM and the TGI [56] was 36 µM. It also gave a TGI [57] of 39.8 µM and a TGI [58] of 12.7 µM.
CCOc1cc(-c2nc3ccccn3c2/N=C/c2cc([N+](=O)[O-])cc([N+](=O)[O-])c2O)ccc1O was tested, and the TGI [1] was > 100 µM, the TGI [2] was > 100 µM and the TGI [3] was > 100 µM. The TGI [4] was > 100 µM, the TGI [5] was > 100 µM and the TGI [6] was > 100 µM. For the same molecule, the TGI [7] was > 100 µM, the TGI [8] was > 100 µM and the TGI [9] was > 100 µM. For the same molecule, the TGI [10] was > 100 µM, the TGI [11] was > 100 µM and the TGI [12] was > 100 µM. For the same molecule, the TGI [13] was > 100 µM, the TGI [14] was > 100 µM and the TGI [15] was > 100 µM. For the same molecule, the TGI [16] was > 100 µM, the TGI [17] was > 100 µM and the TGI [18] was > 100 µM. The TGI [19] was > 100 µM, the TGI [20] was > 100 µM and the TGI [22] was > 100 µM. The TGI [23] was > 100 µM, the TGI [24] was > 100 µM and the TGI [25] was > 100 µM. For the same molecule, the TGI [26] was > 100 µM, the TGI [27] was > 100 µM and the TGI [28] was > 100 µM. The TGI [29] was > 100 µM, the TGI [30] was > 100 µM and the TGI [31] was > 100 µM. For the same molecule, the TGI [32] was > 100 µM, the TGI [33] was > 100 µM and the TGI [34] was > 100 µM. For the same molecule, the TGI [35] was > 100 µM, the TGI [36] was > 100 µM and the TGI [37] was > 100 µM. The TGI [38] was > 100 µM, the TGI [39] was > 100 µM and the TGI [40] was > 100 µM. For the same molecule, the TGI [59] was > 100 µM, the TGI [42] was > 100 µM and the TGI [43] was > 100 µM. The TGI [44] was > 100 µM, the TGI [45] was > 100 µM and the TGI [46] was > 100 µM. The TGI [47] was > 100 µM, the TGI [48] was > 100 µM and the TGI [49] was > 100 µM. For the same molecule, the TGI [50] was > 100 µM, the TGI [51] was > 100 µM and the TGI [52] was > 100 µM. For the same molecule, the TGI [53] was > 100 µM, the TGI [54] was > 100 µM and the TGI [55] was > 100 µM. For the same molecule, the TGI [56] was > 100 µM, the TGI [57] was > 100 µM and the TGI [58] was > 100 µM.

Source: PubChem BioAssay (NCI)
